Source: DBAASP
≈ marks a conversion by molar mass, not a printed value. Where “and” joins values, the source holds several entries; their conditions need not be identical. Equal entries are not always repeated.

Columns and labels:
Assay in all cases: ≥ marks a high value that may be exact or a test limit, other limits are often not marked, values filed in µg/mL are converted to µM
Bacillus subtilis = test system: Bacillus subtilis
[1] = test system: Escherichia coli DH5alpha
[2] = test system: Klebsiella pneumoniae ATCC 13883
[3] = test system: Staphylococcus aureus ATCC 25923
[4] = test system: Escherichia coli ATCC 25922
[5] = test system: Pseudomonas aeruginosa PAO1
[6] = test system: Staphylococcus aureus USA 300
[7] = test system: Candida albicans ATCC 2002
[8] = test system: Pseudomonas aeruginosa CMCCB 10104
[9] = test system: Acinetobacter baumannii ATCC 19606
[10] = test system: Salmonella enterica subsp. enterica serovar Typhimurium ATCC 14028
Bacillus subtilis 168 = test system: Bacillus subtilis 168
Micrococcus luteus = test system: Micrococcus luteus
Staphylococcus aureus = test system: Staphylococcus aureus

| SMILES | MIC [2] [µM] | MIC [3] [µM] | MIC [4] | MIC [5] | MIC [6] [µM] | MIC [7] [µM] | MIC [8] [µM] | further results |
| --- | --- | --- | --- | --- | --- | --- | --- | --- |
| CC[C@H](C)[C@@H]1NC(=O)CNC(=O)[C@H](Cc2c[nH]c3ccccc23)NC(=O)[C@@H]2CSSC[C@H](NC(=O)[C@H](C)N)C(=O)N[C@@H](CCC(N)=O)C(=O)N[C@@H](Cc3ccccc3)C(=O)N[C@@H](Cc3c[nH]c4ccccc34)C(=O)N[C@@H](CO)C(=O)N[C@H]3CSSC[C@H](NC(=O)[C@H](Cc4ccc(O)cc4)NC(=O)[C@H](CCCCN)NC(=O)[C@H](Cc4ccc(O)cc4)NC(=O)[C@H](CCC(N)=O)NC1=O)C(=O)N[C@@H](CCC(N)=O)C(=O)N[C@H](C(=O)N[C@@H](CCC(N)=O)C(=O)O)CSSC[C@H](NC(=O)[C@H](CO)NC(=O)[C@H](CO)NC(=O)[C@H](CC(N)=O)NC3=O)C(=O)N[C@@H]([C@@H](C)CC)C(=O)N[C@@H](CO)C(=O)N[C@@H](CCCN=C(N)N)C(=O)NCC(=O)N[C@@H](Cc1ccc(O)cc1)C(=O)N[C@@H](CCCN=C(N)N)C(=O)N[C@@H](CCC(N)=O)C(=O)NCC(=O)N[C@@H](Cc1ccc(O)cc1)C(=O)N2 [ACQFWSCNSSCISRGYRQGYCWGIQYKYCQCQ] | 13.1 (≈ 49.9 µg/mL) | > 13.1 | – | – | – | – | – | MIC (Bacillus subtilis): 13.1 µM (≈ 49.9 µg/mL); MIC [1]: 13.1 µM (≈ 49.9 µg/mL) |
| CC[C@H](C)[C@H](NC(=O)[C@H](CCCCN)NC(=O)[C@H](CCC(N)=O)NC(=O)[C@@H](NC(=O)[C@@H](NC(=O)[C@H](CCCCN)NC(=O)[C@H](CCCN=C(N)N)NC(=O)[C@H](Cc1ccccc1)NC(=O)CN)[C@@H](C)CC)C(C)C)C(=O)N[C@@H](CCCN=C(N)N)C(=O)N[C@@H](CC(=O)O)C(=O)N[C@@H](Cc1ccccc1)C(=O)N[C@@H](CC(C)C)C(=O)N[C@@H](CCCN=C(N)N)C(=O)N[C@@H](CC(N)=O)C(=O)N[C@@H](CC(C)C)C(=O)N[C@H](C(N)=O)C(C)C [GFRKIVQKIRDFLRNLV] | 3.1 (≈ 6.51 µg/mL) | – | 4.4 µM (≈ 9.25 µg/mL) | > 50 µM | 3.1 (≈ 6.51 µg/mL) | – | – | – |
| CC[C@H](C)[C@H](NC(=O)CN)C(=O)N[C@@H](CC(C)C)C(=O)N[C@@H](CC(=O)O)C(=O)N[C@H](C(=O)N[C@@H](Cc1ccccc1)C(=O)N[C@@H](CCCCN)C(=O)N[C@@H](CC(N)=O)C(=O)N[C@@H](CCSC)C(=O)N[C@@H](C)C(=O)N[C@@H](CC(C)C)C(=O)N[C@@H](CC(N)=O)C(=O)N[C@@H](C)C(=O)N[C@@H](C)C(=O)N[C@@H](CCCCN)C(=O)N[C@@H](CO)C(=O)N[C@@H](C)C(=O)NCC(=O)N[C@H](C(=O)N[C@@H](CO)C(=O)N[C@H](C(=O)N[C@@H](CC(C)C)C(=O)N[C@@H](CC(N)=O)C(=O)N[C@@H](C)C(=O)N[C@@H](CC(C)C)C(=O)N[C@@H](CO)C(=O)N[C@H]1CSSC[C@@H](C(=O)O)NC(=O)[C@H]([C@@H](C)O)NC(=O)[C@H](CCCCN)NC(=O)[C@H](CO)NC(=O)[C@H](CC(C)C)NC(=O)[C@H](CCCCN)NC1=O)C(C)C)C(C)C)[C@@H](C)O [GILDTFKNMALNAAKSAGVSVLNALSCKLSKTC] | – | 3.59 (≈ 12.1 µg/mL) | 3.59 µM (≈ 12.1 µg/mL) | – | – | 1.78 (≈ 6 µg/mL) | 3.59 (≈ 12.1 µg/mL) | – |
| CC[C@H](C)[C@H](NC(=O)[C@@H](NC(=O)[C@H](CC(=O)O)NC(=O)[C@H](CC(C)C)NC(=O)[C@H](CC(C)C)NC(=O)CN)[C@@H](C)O)C(=O)N[C@@H](CCCCN)C(=O)N[C@@H](CC(N)=O)C(=O)N[C@@H](CCSC)C(=O)N[C@@H](C)C(=O)N[C@@H](CC(C)C)C(=O)N[C@@H](CC(N)=O)C(=O)N[C@@H](C)C(=O)N[C@@H](C)C(=O)N[C@@H](CCCCN)C(=O)N[C@@H](CO)C(=O)N[C@@H](C)C(=O)NCC(=O)N[C@H](C(=O)N[C@@H](CO)C(=O)N[C@H](C(=O)N[C@@H](CC(C)C)C(=O)N[C@@H](CC(N)=O)C(=O)N[C@@H](CO)C(=O)N[C@@H](CC(C)C)C(=O)N[C@@H](CO)C(=O)N[C@H]1CSSC[C@@H](C(=O)O)NC(=O)[C@H]([C@@H](C)O)NC(=O)[C@H](CCCCN)NC(=O)[C@H](CO)NC(=O)[C@H](CC(C)C)NC(=O)[C@H](CCCCN)NC1=O)C(C)C)C(C)C [GLLDTIKNMALNAAKSAGVSVLNSLSCKLSKTC] | – | 3.61 (≈ 12.1 µg/mL) | 3.61 µM (≈ 12.1 µg/mL) | – | – | 3.61 (≈ 12.1 µg/mL) | 1.79 (≈ 6 µg/mL) | – |
| CC(C)C[C@H](NC(=O)[C@H](CC(C)C)NC(=O)[C@H](CCCCN)NC(=O)CNC(=O)[C@H](CC(C)C)NC(=O)[C@H](CC(C)C)NC(=O)[C@H](CO)NC(=O)[C@H](CC(C)C)NC(=O)[C@H](C)NC(=O)[C@H](CO)NC(=O)[C@H](CC(C)C)NC(=O)[C@H](CC(C)C)NC(=O)CN)C(N)=O [GLLSALSLLGKLL] | 3.1 (≈ 4.02 µg/mL) | – | 3.1 µM (≈ 4.02 µg/mL) | > 25 µM | 0.78 (≈ 1.01 µg/mL) | – | – | – |
| CC(C)C[C@H](NC(=O)[C@H](C)NC(=O)[C@H](CCCCN)NC(=O)CNC(=O)[C@H](CC(C)C)NC(=O)[C@H](CC(C)C)NC(=O)[C@H](CO)NC(=O)[C@H](CC(C)C)NC(=O)[C@H](CC(C)C)NC(=O)[C@H](CO)NC(=O)[C@H](CC(C)C)NC(=O)[C@H](CC(C)C)NC(=O)CN)C(N)=O [GLLSLLSLLGKAL] | 3.1 (≈ 4.02 µg/mL) | – | 3.1 µM (≈ 4.02 µg/mL) | > 25 µM | 0.78 (≈ 1.01 µg/mL) | – | – | – |
| CC[C@H](C)[C@H](N)C(=O)N[C@@H](CC(=O)O)C(=O)N1CCC[C@H]1C(=O)N[C@@H](Cc1ccccc1)C(=O)N[C@H](C(=O)N[C@@H](C)C(=O)NCC(=O)N[C@H](C(=O)N[C@@H](C)C(=O)N[C@@H](C)C(=O)N[C@@H](CCC(=O)O)C(=O)N[C@@H](CCSC)C(=O)N[C@@H](CCSC)C(=O)N[C@@H](CCC(N)=O)C(=O)N[C@@H](Cc1cnc[nH]1)C(=O)N[C@H](C(=O)N[C@@H](Cc1ccc(O)cc1)C(=O)N[C@H]1CSSC[C@@H](C(=O)O)NC(=O)[C@H](CCCCN)NC(=O)[C@H](CCCCN)NC(=O)[C@H](CO)NC(=O)[C@H](C)NC(=O)[C@H](C)NC1=O)C(C)C)C(C)C)C(C)C [IDPFVAGVAAEMMQHVYCAASKKC] | – | 7.08 (≈ 18.2 µg/mL) | 3.54 µM (≈ 9.09 µg/mL) | – | – | 7.08 (≈ 18.2 µg/mL) | 7.08 (≈ 18.2 µg/mL) | – |
| CC[C@H](C)[C@H](N)C(=O)N[C@H](C(=O)N1CCC[C@H]1C(=O)N[C@@H](Cc1ccccc1)C(=O)N[C@H](C(=O)N[C@@H](C)C(=O)NCC(=O)N[C@H](C(=O)N[C@@H](C)C(=O)N[C@@H](C)C(=O)N[C@@H](CCC(=O)O)C(=O)N[C@@H](CCSC)C(=O)N[C@@H](CCSC)C(=O)N[C@@H](CCC(=O)O)C(=O)N[C@@H](Cc1cnc[nH]1)C(=O)N[C@H](C(=O)N[C@@H](Cc1ccc(O)cc1)C(=O)N[C@H]1CSSC[C@@H](C(=O)O)NC(=O)[C@H](CCCCN)NC(=O)[C@H](CCCCN)NC(=O)[C@H](CO)NC(=O)[C@H](C)NC(=O)[C@H](C)NC1=O)C(C)C)C(C)C)C(C)C)[C@@H](C)CC [IIPFVAGVAAEMMEHVYCAASKKC] | – | 8.64 (≈ 22.2 µg/mL) | 4.32 µM (≈ 11.1 µg/mL) | – | – | 4.32 (≈ 11.1 µg/mL) | 8.64 (≈ 22.2 µg/mL) | – |
| CC[C@H](C)[C@H](N)C(=O)N[C@@H](CC(C)C)C(=O)N1CCC[C@H]1C(=O)N[C@@H](Cc1ccccc1)C(=O)N[C@H](C(=O)N[C@@H](C)C(=O)NCC(=O)N[C@H](C(=O)N[C@@H](C)C(=O)N[C@@H](C)C(=O)N[C@@H](CCC(=O)O)C(=O)N[C@@H](CCSC)C(=O)N[C@@H](CCSC)C(=O)N[C@@H](CCCCN)C(=O)N[C@@H](Cc1cnc[nH]1)C(=O)N[C@H](C(=O)N[C@@H](Cc1ccc(O)cc1)C(=O)N[C@H]1CSSC[C@@H](C(=O)O)NC(=O)[C@H](CCCCN)NC(=O)[C@H](CCCCN)NC(=O)[C@H](CO)NC(=O)[C@H](C)NC(=O)[C@H](C)NC1=O)C(C)C)C(C)C)C(C)C [ILPFVAGVAAEMMKHVYCAASKKC] | – | 5.92 (≈ 15.2 µg/mL) | 5.92 µM (≈ 15.2 µg/mL) | – | – | 2.96 (≈ 7.59 µg/mL) | 11.8 (≈ 30.4 µg/mL) | – |
| CC(C)C[C@H](NC(=O)[C@H](CCCCN)NC(=O)[C@H](CCCCN)NC(=O)[C@H](C)NC(=O)[C@H](Cc1c[nH]c2ccccc12)NC(=O)CNC(=O)[C@H](CCCCN)NC(=O)[C@@H](N)CCCCN)C(=O)N[C@@H](C)C(=O)N[C@@H](Cc1ccccc1)C(=O)N[C@@H](C)C(=O)N[C@@H](Cc1ccccc1)C(=O)NCC(=O)N[C@@H](CCCCN)C(=O)N[C@@H](CCCCN)C(=O)O [KKGWAKKLAFAFGKK] | 30 (≈ 51.2 µg/mL) | > 30 | 7.3 µM and 8.9 µM | 20.7 µM and 23.7 µM | – | – | – | MIC [9]: > 30 µM; MIC [10]: 22.2 µM (≈ 37.9 µg/mL) |
| CC(C)C[C@H](NC(=O)[C@H](CC(C)C)NC(=O)[C@H](CCCCN)NC(=O)[C@H](CC(C)C)NC(=O)CNC(=O)[C@H](CC(C)C)NC(=O)[C@H](CO)NC(=O)[C@H](CC(C)C)NC(=O)[C@H](CC(C)C)NC(=O)[C@H](CC(C)C)NC(=O)[C@H](CO)NC(=O)[C@H](CC(C)C)NC(=O)[C@@H](N)CCCCN)C(N)=O [KLSLLLSLGLKLL] | 25 (≈ 35.2 µg/mL) | – | > 25 µM | > 25 µM | 1.6 (≈ 2.26 µg/mL) | – | – | – |
| CC[C@H](C)[C@H](NC(=O)[C@H](Cc1ccccc1)NC(=O)[C@H](CCCCN)NC(=O)[C@H](CCCCN)NC(=O)[C@H](CCC(=O)O)NC(=O)[C@H](CC(N)=O)NC(=O)[C@H](Cc1ccc(O)cc1)NC(=O)[C@H](CCCCN)NC(=O)[C@H](CC(N)=O)NC(=O)[C@H](CC(C)C)NC(=O)[C@H](CCC(=O)O)NC(=O)[C@H](CC(N)=O)NC(=O)[C@H](CC(C)C)NC(=O)[C@H](Cc1ccccc1)NC(=O)[C@H](CO)NC(=O)[C@@H](N)[C@@H](C)O)C(=O)O [TSFLNELNKYNEKKFI] | – | – | 31.4 µM (≈ 62.5 µg/mL) | – | – | – | – | MIC (Bacillus subtilis 168): 15.7 µM (≈ 31.2 µg/mL); MIC (Micrococcus luteus): 31.4 µM (≈ 62.5 µg/mL); MIC (Staphylococcus aureus): 4.17 µM (≈ 8.3 µg/mL) |
